Assay results taken from US11066396B2 (priority 2016, dated 2021).
pIC50: −log10 of the molar value.

Columns and labels:
[1] = target: HDAC1 (Homo sapiens (Human), UniProt Q13547); conditions: read-out: HDAC1 IC50
Method: Assay protocol: In brief, compounds were titrated in 100% DMSO via accoustic dispensing directly to the assay plate using the ECHO 550 [Labcyte]. HDAC enzymes at the concentrations indicated above were added in assay buffer to the assay plates containing the compounds using a Combi [Thermo Scientific]. The wells were mixed, and the plates were allowed to pre-incubate at ambient temperature for 3 h. After the 3 h, the appropriate substrate, at the concentrations indicated above, was added to the wells using a Combi. The wells were mixed, and the plates were allowed to incubate at ambient temperature for 1 h. After the 1 h, the appropriate Developer/stop solution was added to the wells using a Combi. The wells were mixed, and the plates were allowed to incubate at ambient temperature for 1 h. […] Data were analyzed using 4P curve fitting with Activity Base [IDBS] software.

[2] = target: HDAC8 (Homo sapiens (Human), UniProt Q9BY41); conditions: read-out: HDAC8 IC50
Chain of HDAC8 (Q9BY41 whole entry): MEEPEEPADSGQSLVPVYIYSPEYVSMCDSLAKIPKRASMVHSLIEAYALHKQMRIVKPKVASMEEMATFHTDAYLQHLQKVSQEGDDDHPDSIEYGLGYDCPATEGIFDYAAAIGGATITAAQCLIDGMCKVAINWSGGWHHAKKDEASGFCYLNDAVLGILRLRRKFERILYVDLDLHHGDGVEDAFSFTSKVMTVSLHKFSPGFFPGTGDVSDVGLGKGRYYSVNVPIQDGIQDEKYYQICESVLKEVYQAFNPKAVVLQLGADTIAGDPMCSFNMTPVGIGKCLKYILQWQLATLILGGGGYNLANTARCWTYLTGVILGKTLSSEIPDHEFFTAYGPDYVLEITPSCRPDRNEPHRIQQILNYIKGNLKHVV

Chain of HDAC1 (Q13547 whole entry): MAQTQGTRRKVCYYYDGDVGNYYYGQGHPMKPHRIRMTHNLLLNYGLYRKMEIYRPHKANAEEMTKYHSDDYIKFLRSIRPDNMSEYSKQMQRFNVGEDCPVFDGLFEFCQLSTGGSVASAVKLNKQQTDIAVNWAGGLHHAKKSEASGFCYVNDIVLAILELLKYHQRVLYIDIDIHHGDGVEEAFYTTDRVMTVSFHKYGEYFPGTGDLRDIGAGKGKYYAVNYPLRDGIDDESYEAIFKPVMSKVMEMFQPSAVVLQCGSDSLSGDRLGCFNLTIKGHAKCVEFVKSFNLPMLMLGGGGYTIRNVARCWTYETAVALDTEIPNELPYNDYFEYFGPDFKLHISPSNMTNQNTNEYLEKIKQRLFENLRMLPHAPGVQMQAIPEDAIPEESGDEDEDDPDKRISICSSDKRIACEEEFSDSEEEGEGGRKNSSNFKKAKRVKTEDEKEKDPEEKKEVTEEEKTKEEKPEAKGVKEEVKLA

| Structure (SMILES) | pIC50 [1] | pIC50 [2] |
| --- | --- | --- |
| CC(C)(C)OC(=O)[C@@H]1CCC(=O)N1c1ccc(-c2noc(C(F)(F)F)n2)c(F)c1 [Example 331, tert-butyl 1-{3-fluoro-4-[5-(trifluoromethyl)-1,2,4-oxadiazol-3-yl]phenyl}-5-oxo-L-prolinate] | 5.31 | 4.72 |
| O=C1OC[C@@H](c2ccccc2)N1c1ccc(-c2noc(C(F)(F)F)n2)c(F)c1 [Example 332, (4R)-3-{3-fluoro-4-[5-(trifluoromethyl)-1,2,4-oxadiazol-3-yl]phenyl}-4-phenyl-1,3-oxazolidin-2-one] | 5.35 | 5.35 |
| Cc1noc([C@@H]2CCC(=O)N2c2ccc(-c3noc(C(F)(F)F)n3)c(F)c2)n1 [Example 333, (5S)-1-{3-fluoro-4-[5-(trifluoromethyl)-1,2,4-oxadiazol-3-yl]phenyl}-5-(3-methyl-1,2,4-oxadiazol-5-yl)pyrrolidin-2-one] | 5.48 | 5.17 |
| O=C([C@@H]1CCC(=O)N1c1cc(F)c(-c2noc(C(F)(F)F)n2)cc1F)N1CCCc2ccccc21 [Example 334, (5S)-1-{2,5-difluoro-4-[5-(trifluoromethyl)-1,2,4-oxadiazol-3-yl]phenyl}-5-(3,4-dihydroquinolin-1(2H)-ylcarbonyl)pyrrolidin-2-one] | 5.36 | 4.72 |
| O=C([C@@H]1CCC(=O)N1c1cc(F)c(-c2noc(C(F)(F)F)n2)cc1F)N1CCc2ccccc2C1 [Example 335, (5S)-1-{2,5-difluoro-4-[5-(trifluoromethyl)-1,2,4-oxadiazol-3-yl]phenyl}-5-(3,4-dihydroisoquinolin-2(1H)-ylcarbonyl)pyrrolidin-2-one] | 5.92 | 5.13 |
| O=C([C@@H]1CCC(=O)N1c1cc(F)c(-c2noc(C(F)(F)F)n2)cc1F)N1CCCC1 [Example 336, (5S)-1-{2,5-difluoro-4-[5-(trifluoromethyl)-1,2,4-oxadiazol-3-yl]phenyl}-5-(pyrrolidin-1-ylcarbonyl)pyrrolidin-2-one] | 5.00 | 4.59 |
| CC1(C)CCCN1C(=O)[C@@H]1CCC(=O)N1c1cc(F)c(-c2noc(C(F)(F)F)n2)cc1F [Example 339, (5S)-1-{2,5-difluoro-4-[5-(trifluoromethyl)-1,2,4-oxadiazol-3-yl]phenyl}-5-[(2,2-dimethylpyrrolidin-1-yl)carbonyl]pyrrolidin-2-one] | 4.89 | 4.35 |
| O=C([C@@H]1CCC(=O)N1c1cc(F)c(-c2noc(C(F)(F)F)n2)cc1F)N1CCC1 [Example 341, (5S)-5-(azetidin-1-ylcarbonyl)-1-{2,5-difluoro-4-[5-(trifluoromethyl)-1,2,4-oxadiazol-3-yl]phenyl}pyrrolidin-2-one] | 4.39 | 4.59 |
| CC1(C)CCCN1C(=O)[C@@H]1CCC(=O)N1c1ccc(-c2noc(C(F)(F)F)n2)c(F)c1 [Example 342, (5S)-5-[(2,2-dimethylpyrrolidin-1-yl)carbonyl]-1-{3-fluoro-4-[5-(trifluoromethyl)-1,2,4-oxadiazol-3-yl]phenyl}pyrrolidin-2-one] | 4.35 | 4.60 |
| Cc1cccc(N2CCC(NCc3ccc(-c4noc(C(F)(F)F)n4)cc3)CC2)c1 [Example 349, 1-(3-methylphenyl)-N-({4-[5-(trifluoromethyl)-1,2,4-oxadiazol-3-yl]phenyl}methyl)piperidin-4-amine] | 6.14 | 5.85 |
| CN1Cc2ccc(NCc3ccc(-c4noc(C(F)(F)F)n4)cn3)cc2C1=O [Example 356, 2-methyl-6-[({5-[5-(trifluoromethyl)-1,2,4-oxadiazol-3-yl]pyridin-2-yl}methyl)amino]-2,3-dihydro-1H-isoindol-1-one] | 6.55 | 6.28 |
| FC(F)(F)c1nc(-c2ccc(CNc3ccc4nccn4c3)nc2)no1 [Example 357, N-({5-[5-(trifluoromethyl)-1,2,4-oxadiazol-3-yl]pyridin-2-yl}methyl)imidazo[1,2-a]pyridin-6-amine] | 6.68 | 6.02 |
| Cn1ccc(NCc2ccc(-c3noc(C(F)(F)F)n3)cn2)cc1=O [Example 358, 1-methyl-4-[({5-[5-(trifluoromethyl)-1,2,4-oxadiazol-3-yl]pyridin-2-yl}methyl)amino]pyridin-2(1H)-one] | 6.05 | 5.62 |
| Cc1ccc(NCc2ccc(-c3noc(C(F)(F)F)n3)cn2)cn1 [Example 359, 6-methyl-N-({5-[5-(trifluoromethyl)-1,2,4-oxadiazol-3-yl]pyridin-2-yl}methyl)pyridin-3-amine] | 6.37 | 5.74 |
| OCc1cc(NCc2ccc(-c3noc(C(F)(F)F)n3)cn2)ccc1F [Example 361, {2-fluoro-5-[({5-[5-(trifluoromethyl)-1,2,4-oxadiazol-3-yl]pyridin-2-yl}methyl)amino]phenyl}methanol] | 6.28 | 5.80 |
| Cc1ccc(NCc2ccc(-c3noc(C(F)(F)F)n3)cn2)nn1 [Example 362, 6-methyl-N-({5-[5-(trifluoromethyl)-1,2,4-oxadiazol-3-yl]pyridin-2-yl}methyl)pyridazin-3-amine] | 5.85 | 5.55 |
| COc1ccc(NCc2ccc(-c3noc(C(F)(F)F)n3)cn2)cn1 [Example 363, 6-methoxy-N-({5-[5-(trifluoromethyl)-1,2,4-oxadiazol-3-yl]pyridin-2-yl}methyl)pyridin-3-amine] | 6.28 | 5.47 |

| Structure (SMILES) | pIC50 [1] | pIC50 [2] |
| --- | --- | --- |
| FC(F)(F)c1nc(-c2ccc(CNc3cc4ccccn4n3)nc2)no1 [Example 365, N-({5-[5-(trifluoromethyl)-1,2,4-oxadiazol-3-yl]pyridin-2-yl}methyl)pyrazolo[1,5-a]pyridin-2-amine] | 5.92 | 5.74 |
| Cn1ncc(NCc2ccc(-c3noc(C(F)(F)F)n3)cn2)n1 [Example 366, 2-methyl-N-({5-[5-(trifluoromethyl)-1,2,4-oxadiazol-3-yl]pyridin-2-yl}methyl)-2H-1,2,3-triazol-4-amine] | 5.89 | 5.57 |
| OCc1ccnc(NCc2ccc(-c3noc(C(F)(F)F)n3)cn2)c1 [Example 367, {2-[({5-[5-(trifluoromethyl)-1,2,4-oxadiazol-3-yl]pyridin-2-yl}methyl)amino]pyridin-4-yl}methanol] | 6.09 | 6.06 |
| FC(F)(F)c1nc(-c2ccc(CNc3cnccn3)nc2)no1 [Example 368, N-({5-[5-(trifluoromethyl)-1,2,4-oxadiazol-3-yl]pyridin-2-yl}methyl)pyrazin-2-amine] | 6.00 | 6.05 |
| FC(F)(F)c1nc(-c2ccc(CNc3cncnc3)nc2)no1 [Example 369, N-({5-[5-(trifluoromethyl)-1,2,4-oxadiazol-3-yl]pyridin-2-yl}methyl)pyrimidin-5-amine] | 6.03 | 6.02 |
| FC(F)(F)c1nc(-c2ccc(CNc3ccc4ccncc4c3)nc2)no1 [Example 370, N-({5-[5-(trifluoromethyl)-1,2,4-oxadiazol-3-yl]pyridin-2-yl}methyl)isoquinolin-7-amine] | 7.17 | 6.07 |
| O=C1NC(=O)[C@]2(CC[C@H](NCc3ccc(-c4noc(C(F)(F)F)n4)cn3)CC2)N1 [Example 376, (5s,8s)-8-[({5-[5-(trifluoromethyl)-1,2,4-oxadiazol-3-yl]pyridin-2-yl}methyl)amino]-1,3-diazaspiro[4.5]decane-2,4-dione] | 5.47 | 5.41 |
| FC(F)(F)c1nc(-c2ccc(CNC3Cc4ccccc4C3)nc2)no1 [Example 378, N-({5-[5-(trifluoromethyl)-1,2,4-oxadiazol-3-yl]pyridin-2-yl}methyl)-2,3-dihydro-1H-inden-2-amine] | 6.20 | 5.38 |
| FC(F)(F)c1nc(-c2ccc(CNC3CCN(c4ccccn4)CC3)nc2)no1 [Example 379, 1-(pyridin-2-yl)-N-({5-[5-(trifluoromethyl)-1,2,4-oxadiazol-3-yl]pyridin-2-yl}methyl)piperidin-4-amine] | 5.72 | 5.11 |
| Cc1cc(NCc2ccc(-c3noc(C(F)(F)F)n3)cn2)on1 [Example 380, 3-methyl-N-({5-[5-(trifluoromethyl)-1,2,4-oxadiazol-3-yl]pyridin-2-yl}methyl)-1,2-oxazol-5-amine] | 6.03 | 5.85 |
| FC(F)(F)c1nc(-c2ccc(CNc3ccccn3)cc2)no1 [Example 382, N-{4-[5-(trifluoromethyl)-1,2,4-oxadiazol-3-yl]benzyl}pyridin-2-amine] | 5.80 | 5.68 |
| FC(F)(F)c1nc(-c2ccc(CNc3cccnc3)cc2)no1 [Example 383, N-{4-[5-(trifluoromethyl)-1,2,4-oxadiazol-3-yl]benzyl}pyridin-3-amine] | 5.77 | 5.51 |
| FC(F)(F)c1nc(-c2ccc(CNc3ncccn3)cc2)no1 [Example 386, N-{4-[5-(trifluoromethyl)-1,2,4-oxadiazol-3-yl]benzyl}pyrimidin-2-amine] | 5.28 | 5.41 |
| Cn1nccc1CCOc1cc(-c2noc(C(F)(F)F)n2)ccn1 [Example 387, 2-[2-(1-methyl-1H-pyrazol-5-yl)ethoxy]-4-[5-(trifluoromethyl)-1,2,4-oxadiazol-3-yl]pyridine] | 5.51 | 6.06 |
| O=c1ccc2ccc(C(F)(F)F)cc2n1Cc1ccc(-c2noc(C(F)(F)F)n2)cn1 [Example 388, 7-(trifluoromethyl)-1-({5-[5-(trifluoromethyl)-1,2,4-oxadiazol-3-yl]pyridin-2-yl}methyl)quinolin-2(1H)-one] | 6.55 | 5.31 |
| CC(C)(C(=O)N(Cc1ccc(-c2noc(C(F)(F)F)n2)cn1)c1cccc(F)c1)n1cccn1 [Example 391, N-(3-fluorophenyl)-2-methyl-2-(1H-pyrazol-1-yl)-N-({5-[5-(trifluoromethyl)-1,2,4-oxadiazol-3-yl]pyridin-2-yl}methyl)propanamide] | 5.85 | 5.13 |
